Key:
Assay type in all cases: in vivo
[1] = system: Euschistus heros (Neotropical Brown Stink Bug); test: Example B5: Euschistus heros, sprayed soybean leaves, mortality; conditions: 120 h, application rate of 200 ppm, N2 nymphs, 5 days after infestation
Description: (§1) Soybean leaves on agar in 24-well microtiter plates were sprayed with aqueous test solutions prepared from 10,000 ppm DMSO stock solutions. After drying the leaves were infested with N2 nymphs. The samples were assessed for mortality 5 days after infestation.

[2] = system: Euschistus heros (Neotropical Brown Stink Bug); test: Example B6: Euschistus heros, sprayed soybean leaves, mortality and growth inhibition; conditions: 120 h, application rate of 200 ppm, N2 nymphs, 5 days after infestation, read-out: effect in at least one of the two categories (mortality or growth inhibition)
Description: as §1, with “mortality and growth inhibition in comparison to untreated samples” for “mortality”

[3] = system: Frankliniella occidentalis (Western Flower Thrips); test: Example B7: Frankliniella occidentalis, sprayed sunflower leaf discs, mortality; conditions: foliar, 168 h, application rate of 200 ppm, population of mixed ages, 7 days after infestation
Description: (§2) Sunflower leaf discs were placed on agar in 24-well microtiter plates and sprayed with aqueous test solutions prepared from 10,000 DMSO stock solutions. After drying the leaf discs were infested with a Frankliniella population of mixed ages. The samples were assessed for mortality 7 days after infestation.

[4] = system: Plutella xylostella (Diamond Back Moth); test: Example B12: Plutella xylostella, treated artificial diet, mortality; conditions: 120 h, application rate of 200 ppm, L2 larvae, 5 days after infestation
Description: (§3) 24-well microtiter plates with artificial diet were treated with aqueous test solutions prepared from 10,000 ppm DMSO stock solutions by pipetting. After drying, the plates were infested with L2 larvae (10 to 15 per well). The samples were assessed for mortality 5 days after infestation.

[5] = system: Plutella xylostella (Diamond Back Moth); test: Example B13: Plutella xylostella, treated artificial diet, mortality and growth inhibition; conditions: 120 h, application rate of 200 ppm, L2 larvae, 5 days after infestation, read-out: effect in at least one of the two categories (mortality or growth inhibition)
Description: as §3, with “mortality and growth inhibition in comparison to untreated samples” for “mortality”

[6] = system: Spodoptera littoralis (Egyptian Cotton Leaf Worm); test: Example B16: Spodoptera littoralis, sprayed cotton leaf discs, mortality; conditions: foliar, 72 h, application rate of 200 ppm, L1 larvae, 3 days after infestation
Description: Cotton leaf discs were placed onto agar in 24-well microtiter plates and sprayed with aqueous test solutions prepared from 10,000 ppm DMSO stock solutions. After drying the leaf discs were infested with five L1 larvae. The samples were assessed for mortality 3 days after infestation.

[7] = system: Thrips tabaci (Onion Thrips); test: Example B22: Thrips tabaci, sprayed sunflower leaf discs, mortality; conditions: foliar, 144 h, application rate of 200 ppm, thrips population of mixed ages, 6 days after infestation
Description: as §2, with “10,000 ppm” for “10,000”, “thrips” for “Frankliniella”, “6” for “7”

CCS(=O)(=O)c1cc(C(C#N)CCBr)cnc1-c1cn2cnc(C(F)(F)F)cc2n1 (stereo not shown) [Compound P13, 4-bromo-2-[5-ethylsulfonyl-6-[7-(trifluoromethyl)imidazo[1,2-c]pyrimidin-2-yl]-3-pyridyl]butanenitrile]
≥ 80%: mortality at 200 ppm [1] | percent effect (mortality or growth inhibition) at 200 ppm [2] | mortality at 200 ppm [3] | mortality at 200 ppm [4] | percent effect (mortality or growth inhibition) at 200 ppm [5] | mortality at 200 ppm [6] | mortality at 200 ppm [7]
